For 15 compounds, TGI and GI50 results are on record in PubChem BioAssay (NCI).

Holding throughout (experiment): NCI anticancer screen, dose series, 48 h
The subject of assay [1] is SN12C renal.
For assay [2], the system named is CCRF-CEM leukemia.
Assay [3] has as its system NCI-H522 lung.
Assay [4] relates to SF-295 CNS.
Assay [5] has as its system K-562 leukemia.
The test system of assay [6] is MCF7 breast.
Assay [7] has as its system SF-539 CNS.
For assay [8], the system named is MDA-MB-435.
Assay [9] relates to DLD-1 colon.
Assay [10] deals with XF 498 CNS.
The subject of assay [11] is SNB-78 CNS.
In assay [12] the test system is HOP-18 NSCLC.
Assay [13] has as its system KM20L2 colon.

Several values for one entry are separate records, joined by “and”; a condition that tells them apart may be missing. Identical values can stand only once.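 All cell lines were grown in 96-well plates and treated with compound for 48 hours. GI50 = concentration required for 50% inhibition of growth. TGI denotes the concentration required for complete inhibition of growth.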 Where only a bound is given, the exact number is not on record here.

As to `COc1ccc(NC2Oc3cc4c(cc3C(c3cccc(OC)c3OC)C2C)OCO4)cc1` (configuration not stated), the TGI is above 100 µM in assay [1]; 47.1 µM in assay [2]; above 100 µM in assay [3]; 32.3 µM in assay [4]; 70.6 µM in [5]; above 100 µM in assay [6]. Further, the TGI in assay [7] is above 100 µM; in assay [8], 43.1 µM.
With `COC(=O)C1C(OC(=O)c2ccccc2)CC2CCC1N2C(N)=O` (configuration not stated), the TGI in assay [1], in assay [2], in assay [3], in assay [4], in assay [5] and in assay [6] was above 100 µM each time. For the same compound, the TGI in [7] and in assay [8] was above 100 µM throughout.
`CCCN(C(=O)c1c(Cl)nnc(Cl)c1C(=O)c1cc(Cl)nnc1Cl)c1cc(Cl)nnc1Cl`: the TGI in assay [1] worked out at 26.1 µM; in assay [2], 10.6 µM; in assay [3], 13.3 µM; in assay [4], 42.3 µM; in assay [5], 27.4 µM; in assay [6], 16.8 µM. Besides, the TGI stood at 40 µM in [7] and 37 µM in [8].
In the case of `C#CCOCC12C=CC(O1)C1C(=O)N(C)C(=O)C12` (configuration not stated), the TGI in assay [1], in assay [2], in [3], in assay [4], in assay [5] and in assay [6] was above 100 µM throughout. Further, the TGI in [7] and in assay [8] was above 100 µM in each case. In addition, the GI50 in [5] is 46.4 µM and > 100 µM.
On to `CN(C)CCCNC(=O)N/N=C/c1cccc([N+](=O)[O-])c1`, for which the TGI in assay [1], in assay [9], in assay [10], in assay [2], in [3] and in [4] was above 100 µM throughout. In addition, the TGI in assay [5], in [7], in [11] and in assay [12] was above 100 µM each time.
For the compound `Cn1c(/C=C(\O)c2ccc(Cl)cc2)nc2ccccc21`, the TGI in [13] is 95.6 µM; in [1], above 100 µM; in [9] it was above 100 µM; in assay [10], above 100 µM; in [2] it was above 100 µM; in [3], above 100 µM. The TGI in assay [4], in assay [5], in assay [7] and in assay [11] was above 100 µM each time.
Regarding `COc1nc(N)c(NC2OC(CO)C(O)C2O)c(=O)[nH]1` (configuration not stated), the TGI in assay [1], in [2], in assay [3], in assay [4], in assay [5] and in assay [6] was above 100 µM each time. Besides, the TGI in assay [7] and in assay [8] was above 100 µM each time.
For the compound `COc1cc(OC)c(/C=C2\N=C(C)N(Nc3nnc(NN4C(=O)/C(=C/c5c(OC)cc(OC)cc5OC)N=C4C)c4ccccc34)C2=O)c(OC)c1`, the TGI in assay [13], in assay [1], in assay [9], in [2], in assay [3] and in assay [4] was above 100 µM each time. Further, the TGI in assay [5], in assay [7], in assay [11] and in assay [12] was above 100 µM throughout.
Regarding `C=Cc1c(C)c(OC)cc2c1Oc1ccc(OC)c(C)c1CC2`, the TGI in [1], in [2], in assay [3], in [4], in [5] and in assay [6] was above 100 µM throughout. Moreover, the TGI in assay [7] and in assay [8] was above 100 µM each time.
With `CCOC(=O)/C(C(=S)Nc1ccccc1)=C(/N)N1CCCC1`, the TGI in assay [1], in assay [2], in assay [3], in [4], in [5] and in assay [6] was above 100 µM throughout. The TGI in assay [7] and in assay [8] was above 100 µM each time.
Consider `O=C(NNC1=NCCN1)c1ccco1`, for which the TGI in assay [1], in [2], in assay [3], in [4], in assay [5] and in assay [6] was above 100 µM throughout. The TGI in assay [7] and in [8] was above 100 µM throughout.
Consider `O=C(NCCCCCCCCNC(=O)c1cc(-c2ccccc2)nc2ccccc12)c1cc(-c2ccccc2)nc2ccccc12`, for which the TGI in assay [1], in assay [2], in assay [3], in [4], in assay [5] and in [6] was above 100 µM throughout. For the same compound, the TGI in [7] and in assay [8] was above 100 µM in each case.
For `COc1c2c(cc3oc(C)cc(=O)c13)OC(=N)C(C(N)=O)C2CC(=O)c1ccc(N)cc1` (configuration not stated), the TGI in assay [1], in [2], in assay [3], in assay [4], in [5] and in [6] was above 100 µM throughout. In addition, the TGI in assay [7] and in assay [8] was above 100 µM each time.
Turning to `CCOC(=O)c1sc2c(c1OC(=O)c1cccs1)c(=O)n(-c1ccccc1)c(=S)n2-c1ccccc1`, the TGI was 42 µM in assay [1]; 36 µM in [2]; 27.1 µM in assay [3]; above 100 µM in [4]; above 100 µM in assay [5]; 69.1 µM in [6]. The TGI in assay [7] stood at 36 µM; in assay [8], 29.2 µM.
In the case of `CN(C(=O)Cc1cc(Cl)c(Cl)cc1N=C=S)[C@H]1CCCC[C@@H]1N1CCCC1`, the TGI stood at 30.3 µM in assay [1]; 7.32 µM in assay [2]; 27.7 µM in assay [3]; 31.9 µM in [4]; 5.89 µM in assay [5]; 30.1 µM in [6]. In addition, the TGI in assay [7] was 46 µM; in assay [8] it was 17 µM.
